Peptide text beside a SMILES is read from it. * marks the point of attachment. Palmitoyl = CCCCCCCCCCCCCCCC(=O)*
What was measured:
PAR1 [1] = target: T1, PAR1 (Homo sapiens, UniProt P25116); experiment: Ligand-dependent endocytosis of PAR1; format: cell-based
T1 sequence (P25116 22-425): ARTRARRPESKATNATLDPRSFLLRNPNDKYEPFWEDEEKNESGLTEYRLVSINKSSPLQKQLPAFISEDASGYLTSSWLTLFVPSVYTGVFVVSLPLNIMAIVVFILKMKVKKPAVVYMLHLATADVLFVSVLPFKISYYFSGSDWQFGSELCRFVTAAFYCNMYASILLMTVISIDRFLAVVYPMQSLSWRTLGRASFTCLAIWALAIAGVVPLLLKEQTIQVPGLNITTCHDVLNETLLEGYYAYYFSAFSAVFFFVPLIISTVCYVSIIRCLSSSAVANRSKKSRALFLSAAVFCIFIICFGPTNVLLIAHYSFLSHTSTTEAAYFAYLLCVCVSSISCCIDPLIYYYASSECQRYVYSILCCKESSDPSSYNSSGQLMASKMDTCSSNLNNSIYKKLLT

PAR1 [2] = target: T1, PAR1; experiment: PAR1-dependent human platelet aggregation (SFLLRN); format: cell-based; design: endogenous in cells; conditions: 2.5 μM SFLLRN; P2pal-18S 1 μM or 5 μM
Description: FIG. 5 illustrates: (A) PAR1-dependent human platelet aggregation is not affected by P2pal-18S. Gel-filtered platelets were incubated with 2.5 μM SFLLRN (SEQ ID NO:1) to induce PAR1-dependent platelet aggregation. […] Error bars represent mean±SD. […] Cells were lifted and incubated in PBS/0.4% BSA for 30 min at 25° C. with 0.5-30 μM P2pal-18S or P2pal-14GQ. Propidium iodide (PI) was added directly to the cells and after a 15 min incubation, PI uptake was quantified by flow cytometry. […] Error bars represent ±SEM.

PAR2 [3] = target: PAR2 (Mus musculus, UniProt P55086); experiment: λ-carrageenan/kaolin-induced mouse paw edema and inflammation (PAR2 pepducin); format: in vivo; design: from tissue; host or cells: living C57BL/6 mice, hindpaw; conditions: 10 mg/kg s.c.
PAR2 [4] = target: T2, PAR2 (Homo sapiens, UniProt P55085); experiment: Human neutrophil chemotaxis toward mast cell conditioned media (PAR2 pepducin); format: cell-based; design: SW620 colon adenocarcinoma cells that endogenously express PAR2; endogenous in cells; host or cells: SW620 (in A7 the SW620 cells were additionally stably transfected with PAR1); conditions: 1 mM P2pal-18S; 30 min
Description: (A) Mast cells were treated with 2 mg/mL of mast cell degranulating agent 48/80 or 2% 1-carrageenan/4% kaolin. […] (B) P2pal-18S inhibits human neutrophil chemotaxis (n=6) to mast cell media. Human neutrophils were incubated with […] P2pal-18S, or […] mast cell tryptase inhibitor APC-366 and allowed to migrate 30 min toward CM from mast cells. (C) C57BL/6 mice (n=5) were pretreated with the tryptase inhibitor APC-366 (5 mg/kg, s.c.) or vehicle (20% DMSO) and then challenged with intraplantar injection of 1-carrageenan/kaolin. (D) Mast cell conditioned media (30 μL of 1-carrageenan/kaolin stimulated media) was injected into the hindpaws of C57BL/6 mice treated with 10 mg/kg P2pal-18S or vehicle (n=5). Data represent mean±SEM. #, P=0.07, *, P<0.05 and **, P<0.005. (E) Mast cell-deficient mice have a significant reduction in 1-carrageenan/kaolin induced paw edema (8 h time point, n=4-6) as compared to littermate controls. Mast-cell deficient mice or littermate controls with intact mast cells were treated with P2pal-18S (10 mg/kg, s.c.) or vehicle and hind paws challenged with 1-carrageenan/kaolin irritant. Error bars represent mean±SEM. […]
Target sequence in this assay (P55085 26-397): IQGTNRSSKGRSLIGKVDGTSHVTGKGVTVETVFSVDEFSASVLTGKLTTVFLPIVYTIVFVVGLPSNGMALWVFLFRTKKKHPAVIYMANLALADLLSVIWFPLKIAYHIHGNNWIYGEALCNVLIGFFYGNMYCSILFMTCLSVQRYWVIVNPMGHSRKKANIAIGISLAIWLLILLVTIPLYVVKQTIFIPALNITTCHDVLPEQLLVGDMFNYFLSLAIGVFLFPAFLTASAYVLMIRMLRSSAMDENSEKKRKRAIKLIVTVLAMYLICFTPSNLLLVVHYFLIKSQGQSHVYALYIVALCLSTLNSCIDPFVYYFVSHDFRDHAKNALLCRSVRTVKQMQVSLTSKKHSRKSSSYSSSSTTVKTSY

PAR2 [5] = target: T2, PAR2; experiment: Agonist | (%)^†; design: SW620 colon adenocarcinoma cells that endogenously express PAR2; endogenous in cells; host or cells: SW620 (in A7 the SW620 cells were additionally stably transfected with PAR1); conditions: 4 µM
Target sequence in this assay (P55085 26-397 limits assumed): as the sequence (P55085 26-397) above
Description: (A) Agonist and antagonist activity of third intracellular (i3) loop PAR2 pepducins (structure shown on top) using calcium flux assays with SW620 colon adenocarcinoma cells that endogenously express PAR2. Each column of three calcium flux traces corresponds to the i3 pepducin sequence shown above. The top row is the agonist activity of 3-4 μM pepducin and the middle row is the agonist activity of 14-15 μM pepducin. […] Final concentration of DMSO vehicle was 0.2%. […] (C) Agonist activity for each pepducin from (A) is reported as initial velocity of calcium flux at 4 μM pepducin (†), or at 14-15 μM pepducin (‡).

PAR2 [6] = target: T2, PAR2; experiment: Agonist | (%)^‡; design: SW620 colon adenocarcinoma cells that endogenously express PAR2; endogenous in cells; host or cells: SW620 (in A7 the SW620 cells were additionally stably transfected with PAR1)
Target sequence in this assay (P55085 26-397 limits assumed): as the sequence (P55085 26-397) above

[7] = system: A549, HOP62, and HOP92 lung carcinoma cell lines; experiment: Cytotoxicity/cell viability of lung carcinoma cells (MIT assay); format: cell-based, human; conditions: 3-day period

Chain of PAR2 (Mus musculus, UniProt P55086) (P55086 26-399): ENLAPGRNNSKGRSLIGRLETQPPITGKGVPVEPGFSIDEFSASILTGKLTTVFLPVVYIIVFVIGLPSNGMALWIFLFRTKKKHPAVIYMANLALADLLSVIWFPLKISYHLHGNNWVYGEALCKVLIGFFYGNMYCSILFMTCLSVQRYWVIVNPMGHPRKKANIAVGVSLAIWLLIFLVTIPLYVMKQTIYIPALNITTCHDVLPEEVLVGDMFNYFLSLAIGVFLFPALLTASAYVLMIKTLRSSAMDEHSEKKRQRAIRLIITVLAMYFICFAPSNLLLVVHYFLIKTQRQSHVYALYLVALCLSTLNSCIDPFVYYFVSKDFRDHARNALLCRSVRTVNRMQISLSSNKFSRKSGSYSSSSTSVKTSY

Inhibition of ligand-dependent endocytosis of PAR1 (PAR1 [1])	Effect on PAR1-dependent platelet aggregation (PAR1 [2])	Effect on increase in myeloperoxidase activity in hindpaw tissue (PAR2 [3]; 7 h after λ-carrageenan/kaolin, WT mice)	Protection against leukocytic infiltrates in the dermis of the footpads (PAR2 [3]; 7 h post λ-carrageenan/kaolin) [%]	Effect on swelling in PAR2-deficient mice (PAR2 [3]; PAR2-deficient mice)	Decrease in λ-carrageenan/kaolin-induced edema (PAR2 [3]; WT C57BL/6 mice) [%]	Effect on paw edema in mast cell-deficient mice (PAR2 [3]; mast cell-deficient mice, λ-carrageenan/kaolin)	Inhibition of chemotactic migration toward tryptase-containing mast cell media (PAR2 [4])	Agonist | (%)^† (PAR2 [5]) [%]	Agonist | (%)^‡ (PAR2 [6]) [%]	SMILES	Sensitivity of A549 cells (cytotoxicity) [7]
did not inhibit	had no effect	blocked	60	did not further reduce swelling	50	could not be further reduced	completely inhibited	3	3	CCCCCCCCCCCCCCCC(=O)N[C@@H](CCCNC(=N)N)C(=O)N[C@@H](CO)C(=O)N[C@@H](CO)C(=O)N[C@@H](C)C(=O)N[C@@H](CCSC)C(=O)N[C@@H](CC(=O)O)C(=O)N[C@@H](CCC(=O)O)C(=O)N[C@@H](CC(N)=O)C(=O)N[C@@H](CO)C(=O)N[C@@H](CCC(=O)O)C(=O)N[C@@H](CCCCN)C(=O)N[C@@H](CCCCN)C(=O)N[C@@H](CCCNC(=N)N)C(=O)N[C@@H](CCCCN)C(=O)N[C@@H](CO)C(=O)N[C@@H](C)C(=O)N[C@H](C(=O)N[C@@H](CCCCN)C(N)=O)[C@@H](C)CC [P2pal-18S]	–
–	–	–	–	–	–	–	–	–	–	CCCCCCCCCCCCCCCC(=O)N[C@H](C(=O)N[C@@H](CC(C)C)C(=O)N[C@@H](CCCCN)C(=O)N[C@@H](CCSC)C(=O)N[C@@H](CCCCN)C(=O)N[C@H](C(=O)N[C@@H](CCCCN)C(=O)N[C@@H](CCCCN)C(=O)N1CCC[C@H]1C(=O)N[C@@H](C)C(=O)N[C@H](C(N)=O)C(C)C)C(C)C)[C@@H](C)CC [P1pal-i1-11] (Palmitoyl-ILKMKVKKPAV-NH2)	less sensitive

Reference: patent US10913781B2, “Pepducin design and use” (Tufts Medical Center, Inc., priority 2011, dated 2021)
